Values after ≈ are worked out from the molar mass of the structure shown.

The values that follow come from ChEMBL document CHEMBL1124186, “Synthesis and evaluation of tylosin-related macrolides modified at the aldehyde function: a new series of orally effective antibiotics” (1988).

The test system of one test is Haemophilus influenzae. Nature of the test: In vitro antimicrobial activity against Haemophilus influenzae. Format: functional.
For another test, the system named is Staphylococcus aureus. Description: In vitro antimicrobial activity against Staphylococcus aureus X1. The format is functional.
Test [1] concerns Streptococcus pyogenes. Nature of the test: In vivo effective dose against experimental infections in rodent caused by Streptococcus pyogenes C203 when administered sc. Format: functional.
The next test deals with Streptococcus pneumoniae. Nature of the test: In vitro antimicrobial activity against Streptococcus pneumoniae. Format: functional.
Test [2] deals with Staphylococcus epidermidis. Nature of the test: In vitro antimicrobial activity against Staphylococcus epidermidis EPI1. The format is functional.
A further test relates to Enterococcus faecium. Nature of the test: In vitro antimicrobial activity against Streptococcus faecium X66. The format is functional, streptococcus fae-cium.
In test [3] the test system is Streptococcus pyogenes. Nature of the test: In vitro antimicrobial activity against Streptococcus pyogenes C203. The format is functional.
Test [4] has as its system Streptococcus pyogenes. Description: In vivo effective dose against experimental infections in rodent caused by Streptococcus pyogenes C203 when administered orally. The following applies: po. The format is functional.

On to `CC[C@H]1OC(=O)C[C@@H](O)[C@H](C)[C@@H](O[C@@H]2O[C@H](C)[C@@H](O)[C@H](N(C)C)[C@H]2O)[C@@H](CCOc2ccccc2)C[C@@H](C)C(=O)/C=C/C(C)=C/[C@@H]1CO[C@@H]1O[C@H](C)[C@@H](O)[C@@H](O)[C@H]1OC`, for which the MIC in the test with Haemophilus influenzae amounted to 32 µg/mL (≈ 38.3 µM); in the test on Staphylococcus aureus it was 0.25 µg/mL (≈ 0.299 µM); in the test on Streptococcus pneumoniae, 1 µg/mL (≈ 1.2 µM); in test [2], 0.25 µg/mL (≈ 0.299 µM); against Enterococcus faecium, 4 µg/mL (≈ 4.78 µM); against Streptococcus pyogenes [3], 0.25 µg/mL (≈ 0.299 µM). In addition, the ED50 (usually the dose at which the effect has come halfway, by size or by number of responders) in the test on Streptococcus pyogenes [1] came out at 3.2 mg/kg; in the test with Streptococcus pyogenes [4], 50 mg/kg.

`CC[C@H]1OC(=O)C[C@@H](O)[C@H](C)[C@@H](O[C@@H]2O[C@H](C)[C@@H](O)[C@H](N(C)C)[C@H]2O)[C@@H](CCOc2ncnc3ccccc23)C[C@@H](C)C(=O)/C=C/C(C)=C/[C@@H]1CO[C@@H]1O[C@H](C)[C@@H](O)[C@@H](OC)[C@H]1OC`: the MIC with Haemophilus influenzae came out at 16 µg/mL (≈ 17.7 µM); against Staphylococcus aureus, 0.25 µg/mL (≈ 0.277 µM); with Streptococcus pneumoniae, 0.5 µg/mL (≈ 0.554 µM); in test [2], 0.25 µg/mL (≈ 0.277 µM); in the test on Enterococcus faecium, 4 µg/mL (≈ 4.43 µM); in the test on Streptococcus pyogenes [3], 0.5 µg/mL (≈ 0.554 µM). Moreover, the median effective dose (ED50) in the test with Streptococcus pyogenes [1] was 5.4 mg/kg; in the test with Streptococcus pyogenes [4] it was more than 50 mg/kg.

Take `CC[C@H]1OC(=O)C[C@@H](O)[C@H](C)[C@@H](O[C@@H]2O[C@H](C)[C@@H](O[C@H]3C[C@@](C)(O)[C@@H](O)[C@H](C)O3)[C@H](N(C)C)[C@H]2O)[C@@H](CCNCCc2ccccc2)C[C@@H](C)C(=O)/C=C/C(C)=C/[C@@H]1CO[C@@H]1O[C@H](C)[C@@H](O)[C@@H](OC)[C@H]1OC`: the MIC in the test with Haemophilus influenzae amounted to 64 µg/mL (≈ 62.7 µM); in the test on Staphylococcus aureus it was 1 µg/mL (≈ 0.979 µM); against Streptococcus pneumoniae, 8 µg/mL (≈ 7.83 µM); in test [2], 2 µg/mL (≈ 1.96 µM); in the test on Enterococcus faecium, 128 µg/mL (≈ 125 µM); in the test on Streptococcus pyogenes [3] it was 1 µg/mL (≈ 0.979 µM). For the same molecule, the 50% effective dose (ED50) in the test with Streptococcus pyogenes [1] amounted to 9.1 mg/kg; in the test on Streptococcus pyogenes [4], 76 mg/kg.

In the case of `CC[C@H]1OC(=O)C[C@@H](O)[C@H](C)[C@@H](O[C@@H]2O[C@H](C)[C@@H](O)[C@H](N(C)C)[C@H]2O)[C@@H](CCOc2ccc(OC(C)=O)cc2)C[C@@H](C)C(=O)/C=C/C(C)=C/[C@@H]1CO`, the MIC in the test on Haemophilus influenzae is 16 µg/mL (≈ 21.8 µM); in the test with Staphylococcus aureus, 1 µg/mL (≈ 1.36 µM); in the test with Streptococcus pneumoniae, 0.5 µg/mL (≈ 0.681 µM); in test [2], 0.5 µg/mL (≈ 0.681 µM); in the test on Enterococcus faecium, 2 µg/mL (≈ 2.73 µM); against Streptococcus pyogenes [3], 1 µg/mL (≈ 1.36 µM). Besides, the median effective dose (ED50) in the test with Streptococcus pyogenes [1] is more than 30 mg/kg; in the test on Streptococcus pyogenes [4], more than 100 mg/kg.

For `CC[C@H]1OC(=O)C[C@@H](O)[C@H](C)[C@@H](O[C@@H]2O[C@H](C)[C@@H](O)[C@H](N(C)C)[C@H]2O)[C@@H](CCO)C[C@@H](C)C(=O)/C=C/C(C)=C/[C@@H]1CO[C@@H]1O[C@H](C)[C@@H](O)[C@@H](O)[C@H]1OC`, the MIC in the test on Haemophilus influenzae is 32 µg/mL (≈ 42.1 µM); in the test with Staphylococcus aureus, 8 µg/mL (≈ 10.5 µM); with Streptococcus pneumoniae, 2 µg/mL (≈ 2.63 µM); in test [2], 4 µg/mL (≈ 5.26 µM); against Enterococcus faecium it was 64 µg/mL (≈ 84.2 µM); in the test with Streptococcus pyogenes [3] it was 2 µg/mL (≈ 2.63 µM). Moreover, the ED50 with Streptococcus pyogenes [1] was 8.9 mg/kg; in the test on Streptococcus pyogenes [4], more than 100 mg/kg.

For `CC[C@H]1OC(=O)C[C@@H](O)[C@H](C)[C@@H](O[C@@H]2O[C@H](C)[C@@H](O)[C@H](N(C)C)[C@H]2O)[C@@H](CCN)C[C@@H](C)C(=O)/C=C/C(C)=C/[C@@H]1CO[C@@H]1O[C@H](C)[C@@H](O)[C@@H](OC)[C@H]1OC`, the MIC in the test with Haemophilus influenzae was found to be 128 µg/mL (≈ 166 µM); against Staphylococcus aureus it was 4 µg/mL (≈ 5.17 µM); in the test on Streptococcus pneumoniae, 32 µg/mL (≈ 41.4 µM); in test [2], 8 µg/mL (≈ 10.3 µM); in the test with Enterococcus faecium, 128 µg/mL (≈ 166 µM); in the test with Streptococcus pyogenes [3], 32 µg/mL (≈ 41.4 µM). The ED50 in the test on Streptococcus pyogenes [1] is more than 10 mg/kg; in the test with Streptococcus pyogenes [4] it was more than 100 mg/kg.

Consider `CCOC(=O)NN(CC[C@H]1C[C@@H](C)C(=O)/C=C/C(C)=C/[C@H](CO[C@@H]2O[C@H](C)[C@@H](O)[C@@H](OC)[C@H]2OC)[C@@H](CC)OC(=O)C[C@@H](O)[C@H](C)[C@H]1O[C@@H]1O[C@H](C)[C@@H](O)[C@H](N(C)C)[C@H]1O)C(=O)OCC`, for which the MIC came out at 32 µg/mL (≈ 34.3 µM) against Haemophilus influenzae; 0.5 µg/mL (≈ 0.536 µM) with Staphylococcus aureus; 1 µg/mL (≈ 1.07 µM) against Streptococcus pneumoniae; 0.5 µg/mL (≈ 0.536 µM) in test [2]; 16 µg/mL (≈ 17.2 µM) in the test on Enterococcus faecium; 1 µg/mL (≈ 1.07 µM) against Streptococcus pyogenes [3]. In addition, the results for the 50% effective dose (ED50) with Streptococcus pyogenes [1] and with Streptococcus pyogenes [4] were 2.1 mg/kg and more than 5 mg/kg, respectively.

Regarding `CC[C@H]1OC(=O)C[C@@H](O)[C@H](C)[C@@H](O[C@@H]2O[C@H](C)[C@@H](O)[C@H](N(C)C)[C@H]2O)[C@@H](CCOS(=O)(=O)c2ccc(C)cc2)C[C@@H](C)C(=O)/C=C/C(C)=C/[C@@H]1CO[C@@H]1O[C@H](C)[C@@H](O)[C@@H](OC)[C@H]1OC`, the MIC against Haemophilus influenzae stood at 32 µg/mL (≈ 34.5 µM); in the test on Staphylococcus aureus, 0.5 µg/mL (≈ 0.539 µM); in the test with Streptococcus pneumoniae, 1 µg/mL (≈ 1.08 µM); in test [2] it was 0.5 µg/mL (≈ 0.539 µM); against Enterococcus faecium, 8 µg/mL (≈ 8.62 µM); with Streptococcus pyogenes [3] it was 1 µg/mL (≈ 1.08 µM). Further, the ED50 was found to be 3.1 mg/kg in the test with Streptococcus pyogenes [1] and 5 mg/kg in the test on Streptococcus pyogenes [4].

With `CC[C@H]1OC(=O)C[C@@H](O)[C@H](C)[C@@H](O[C@@H]2O[C@H](C)[C@@H](O)[C@H](N(C)C)[C@H]2O)[C@@H](CCOc2ccc(CN3CCCCCC3)cc2)C[C@@H](C)C(=O)/C=C/C(C)=C/[C@@H]1CO[C@@H]1O[C@H](C)[C@@H](O)[C@@H](OC)[C@H]1OC`, the MIC was determined as 32 µg/mL (≈ 33.3 µM) in the test with Haemophilus influenzae; 0.5 µg/mL (≈ 0.52 µM) against Staphylococcus aureus; 1 µg/mL (≈ 1.04 µM) in the test on Streptococcus pneumoniae; 0.5 µg/mL (≈ 0.52 µM) in test [2]; 8 µg/mL (≈ 8.32 µM) in the test on Enterococcus faecium; 0.5 µg/mL (≈ 0.52 µM) in the test on Streptococcus pyogenes [3]. Besides, the 50% effective dose (ED50) is 1.9 mg/kg in the test with Streptococcus pyogenes [1] and 27 mg/kg with Streptococcus pyogenes [4].

Consider `CC[C@H]1OC(=O)C[C@@H](O)[C@H](C)[C@@H](O[C@@H]2O[C@H](C)[C@@H](O)[C@H](N(C)C)[C@H]2O)[C@@H](CCOc2cccnc2)C[C@@H](C)C(=O)/C=C/C(C)=C/[C@@H]1CO[C@@H]1O[C@H](C)[C@@H](O)[C@@H](OC)[C@H]1OC`, for which the MIC in the test with Haemophilus influenzae was found to be 16 µg/mL (≈ 18.8 µM); against Staphylococcus aureus, 0.5 µg/mL (≈ 0.588 µM); in the test with Streptococcus pneumoniae, 2 µg/mL (≈ 2.35 µM); in test [2] it was 0.5 µg/mL (≈ 0.588 µM); against Enterococcus faecium it was 16 µg/mL (≈ 18.8 µM); against Streptococcus pyogenes [3], 2 µg/mL (≈ 2.35 µM). For the same molecule, the ED50 worked out at 3.9 mg/kg with Streptococcus pyogenes [1] and 50 mg/kg with Streptococcus pyogenes [4].

As for `CC[C@H]1OC(=O)C[C@@H](O)[C@H](C)[C@@H](O[C@@H]2O[C@H](C)[C@@H](O)[C@H](N(C)C)[C@H]2O)[C@@H](CCOc2ccc(CO)cc2)C[C@@H](C)C(=O)/C=C/C(C)=C/[C@@H]1CO[C@@H]1O[C@H](C)[C@@H](O)[C@@H](OC)[C@H]1OC`, the MIC against Haemophilus influenzae worked out at 64 µg/mL (≈ 72.7 µM); in the test with Staphylococcus aureus, 0.5 µg/mL (≈ 0.568 µM); against Streptococcus pneumoniae, 2 µg/mL (≈ 2.27 µM); in test [2], 0.5 µg/mL (≈ 0.568 µM); against Enterococcus faecium it was 16 µg/mL (≈ 18.2 µM); in the test with Streptococcus pyogenes [3], 0.5 µg/mL (≈ 0.568 µM). For the same molecule, the ED50 worked out at 5 mg/kg in the test with Streptococcus pyogenes [1] and 44 mg/kg with Streptococcus pyogenes [4].

Regarding `CC[C@H]1OC(=O)C[C@@H](O)[C@H](C)[C@@H](O[C@@H]2O[C@H](C)[C@@H](O)[C@H](N(C)C)[C@H]2O)[C@@H](CCNCCc2ccccc2)C[C@@H](C)C(=O)/C=C/C(C)=C/[C@@H]1CO[C@@H]1O[C@H](C)[C@@H](O)[C@@H](OC)[C@H]1OC`, the MIC against Haemophilus influenzae came out at 8 µg/mL (≈ 9.12 µM); in the test on Staphylococcus aureus, 0.5 µg/mL (≈ 0.57 µM); against Streptococcus pneumoniae, 1 µg/mL (≈ 1.14 µM); in test [2], 0.5 µg/mL (≈ 0.57 µM); against Enterococcus faecium, 8 µg/mL (≈ 9.12 µM); against Streptococcus pyogenes [3], 0.25 µg/mL (≈ 0.285 µM). The values for the ED50 with Streptococcus pyogenes [1] and with Streptococcus pyogenes [4] were more than 1.6 mg/kg and 55 mg/kg, respectively.
